# Tests used:
# [1] = intraileal injection
# Method: [^3H]Estrone 3-sulfate, 0.005 μmol/100 μl, was injected directly into the ileal lumen of Ostα^+/+ and Ostα^−/− male (FIG. 18C) and female (FIG. 18D) mice. Tissues were collected for analysis of radioactivity after 30 min.
# Mice that had been fed ad libitum were anesthetized by intraperitoneal administration of pentobarbital sodium (50 mg/kg) and additional anesthetic was administered as required for the duration of the experiment. […] At the end of the experiments, 150-300 μl of blood was collected from the abdominal aorta in a tared 1 ml syringe containing 50 μl of heparin (1000 U/ml). The small intestine was removed and segmented into 3 parts, where the first third after the stomach comprised the duodenum, the middle third the jejunum, and the section before the ileo-ceco-colic junction comprised the ileum. Colon, liver, gallbladder, kidney and the urinary bladder were also removed and weighed. The contents of the small intestine, colon, gallbladder and urinary bladder were included in the analysis. For the liver, approximately 0.2-0.4 g of tissue was taken for analysis of radioisotope content. Tissue and blood samples were placed in tared 20-ml glass vials, and Solvable (Perkin-Elmer, Life and Analytical Sciences, Boston, Mass.) was added to each vial (1.0 ml/0.1 g tissue or 2.0 ml/1.0 ml blood), which was then heated to 60° C. for 2 to 3 h. The vials were allowed to cool to room temperature, and 0.1 ml of 0.1 M EDTA/1.0 ml of Solvable was added to each vial of blood. H2O2 (30%) was then added in 0.1-ml aliquots (0.3 ml/1.0 ml Solvable for blood or 0.1 ml/1.0 ml Solvable for tissues). After standing at room temperature for 15 to 30 min, the vials were capped tightly and heated to 60° C. for 1 h and allowed to cool back to room temperature. After the addition of scintillation fluid (4 ml of Opti-Fluor to 200 μl of each sample) (Perkin-Elmer, Life and Analytical Sciences, Boston, Mass.), the samples were allowed to stand for at least 2 h at room temperature before counting. Samples were counted in a Beckman LS 6500 scintillation counter (Beckman Coulter, Fullerton, Calif.). […]
# [2] = target: Ostα-YN (mouse); experiment: cell-based or functional assay
# Chain of Ostα-YN (mouse) (Q8R000 whole entry): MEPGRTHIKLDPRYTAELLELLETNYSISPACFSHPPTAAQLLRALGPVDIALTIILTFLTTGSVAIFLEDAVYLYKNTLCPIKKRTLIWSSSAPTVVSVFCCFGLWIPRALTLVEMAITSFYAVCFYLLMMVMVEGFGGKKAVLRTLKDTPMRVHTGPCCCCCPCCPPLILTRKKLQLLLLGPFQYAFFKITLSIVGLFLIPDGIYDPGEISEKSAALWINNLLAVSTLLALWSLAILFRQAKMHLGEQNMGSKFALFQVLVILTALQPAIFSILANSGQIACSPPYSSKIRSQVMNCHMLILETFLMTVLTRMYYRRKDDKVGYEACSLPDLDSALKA
compound,measurement,setting,value
"C[C@H](CCC(=O)NCCS(=O)(=O)O)[C@H]1CC[C@H]2[C@@H]3[C@H](O)C[C@@H]4C[C@H](O)CC[C@]4(C)[C@H]3C[C@H](O)[C@]12C [taurocholate, taurocholic acid]",absorption from the ileum,"[1]; wild type mice, 15 min",> 90%
Ostβ29-53-YC (peptide),[3H]taurocholate transport in cells co-transfected with Ostα-YN and Ostβ-YC,[2],30%
estrone 3-sulfate [estrone sulfate],fraction absorbed from the ileum,"[1]; Ostα−/− mice, 30 min",20-30%
same,removed from the ileum,"[1]; wild type mice, 30 min",60-70%

# — US20110030077A1, “METHODS OF MODULATING THE ORGANIC SOLUTE AND STEROID TRANSPORTER (OSTalpha-OSTbeta) ACTIVITY AND TREATING ASSOCIATED CONDITIONS” (UNIVERSITY OF ROCHESTER, priority 2009, published 2011)
